Publication PMC9482650, “Quantitative fragmentomics allow affinity mapping of interactomes” (Nature Communications, 2022)
pKd: −log10 of the molar value. Where two headings read alike, the source gives them in different places. Ends that are not written are not given here.

Experiments:
Type in all cases: binding
[1] = molecular target: MAGI3_2 PDZ (Homo sapiens, UniProt Q5TCQ9); assay: Holdup assay; details: for Kd: composite holdup affinity, 0.00=below quantification threshold, read-out: COMP pKd (converted)
Chain of MAGI3_2 PDZ (Q5TCQ9 410-492 limits assumed): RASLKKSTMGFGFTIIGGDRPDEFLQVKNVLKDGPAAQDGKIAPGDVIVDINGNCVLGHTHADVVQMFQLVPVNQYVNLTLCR

[2] = molecular target: MAGIX PDZ (Homo sapiens, UniProt Q9H6Y5); assay: Holdup assay; details: sheet PPI_convert; read-out: affinity to PDZ MAGIX (converted)
Chain of MAGIX PDZ (Q9H6Y5 125-209): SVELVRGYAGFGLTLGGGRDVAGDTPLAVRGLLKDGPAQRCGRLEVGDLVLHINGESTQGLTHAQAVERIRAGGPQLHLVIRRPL
Source text: Supplement 41467_2022_33018_MOESM4_ESM.xlsx, sheet "PPI_convert" | column: MAGIX

[3] = molecular target: T1, NHERF3_1 PDZ (Homo sapiens, UniProt Q5T2W1); assay: Holdup assay; details: for Kd: composite holdup affinity, 0.00=below quantification threshold, read-out: COMP pKd (converted)
T1 sequence (Q5T2W1 9-90 limits assumed): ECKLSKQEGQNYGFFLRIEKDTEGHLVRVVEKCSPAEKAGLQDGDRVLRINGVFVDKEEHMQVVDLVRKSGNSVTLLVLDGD

[4] = molecular target: DLG2_1 PDZ (Homo sapiens, UniProt Q15700); assay: Holdup assay
Chain of DLG2_1 PDZ (Q15700 98-184): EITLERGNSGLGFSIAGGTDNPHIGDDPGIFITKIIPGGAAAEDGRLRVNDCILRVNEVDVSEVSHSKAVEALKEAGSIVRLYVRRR

[5] = molecular target: NOS1 PDZ (Homo sapiens, UniProt P29475); assay: Holdup assay; details: for Kd: composite holdup affinity, 0.00=below quantification threshold, read-out: COMP pKd (converted)
Chain of NOS1 PDZ (P29475 17-99 limits assumed): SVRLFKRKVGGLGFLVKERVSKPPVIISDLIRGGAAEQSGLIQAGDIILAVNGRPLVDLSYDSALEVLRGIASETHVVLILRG

[6] = molecular target: IL16_2 PDZ (Homo sapiens, UniProt Q14005); assay: Holdup assay; details: sheet PPI_convert; read-out: affinity to PDZ IL16_2 (converted)
Chain of IL16_2 PDZ (Q14005 355-440 limits assumed): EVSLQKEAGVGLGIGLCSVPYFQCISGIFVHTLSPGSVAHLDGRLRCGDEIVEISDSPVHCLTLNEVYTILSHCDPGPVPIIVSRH

[7] = molecular target: DLG5_2 PDZ (Homo sapiens, UniProt Q8TDM6); assay: Holdup assay; details: sheet PPI_convert; read-out: affinity to PDZ DLG5_2 (converted)
Chain of DLG5_2 PDZ (Q8TDM6 705-796 limits assumed): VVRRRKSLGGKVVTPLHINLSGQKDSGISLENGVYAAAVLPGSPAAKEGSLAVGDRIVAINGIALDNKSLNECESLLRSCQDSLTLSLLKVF

[8] = molecular target: T2, MAST2 PDZ (Homo sapiens, UniProt Q6P0Q8); assay: biochemical; details: composite holdup affinity; 0.00=below quantification threshold; read-out: COMP pKd (converted)
T2 sequence (Q6P0Q8 1104-1192 limits assumed): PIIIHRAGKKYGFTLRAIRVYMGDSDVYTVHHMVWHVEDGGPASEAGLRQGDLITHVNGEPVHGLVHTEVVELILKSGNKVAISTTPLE

[9] = molecular target: FRMPD2_1 PDZ (Homo sapiens, UniProt Q68DX3); assay: Holdup assay
Chain of FRMPD2_1 PDZ (Q68DX3 775-861 limits assumed): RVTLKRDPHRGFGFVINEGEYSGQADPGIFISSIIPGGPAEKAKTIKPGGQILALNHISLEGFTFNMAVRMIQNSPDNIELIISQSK

[10] = molecular target: DLG1_1 PDZ (Homo sapiens, UniProt Q12959); assay: Holdup assay; details: for Kd: composite holdup affinity, 0.00=below quantification threshold, read-out: COMP pKd (converted)
[11] = molecular target: MAGI3_6 PDZ (Homo sapiens, UniProt Q5TCQ9); assay: Holdup assay; details: sheet PPI_convert; read-out: affinity to PDZ MAGI3_6 (converted)
Chain of MAGI3_6 PDZ (Q5TCQ9 1021-1103 limits assumed): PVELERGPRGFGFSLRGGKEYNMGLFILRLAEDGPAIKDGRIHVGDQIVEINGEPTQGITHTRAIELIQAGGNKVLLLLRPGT

[12] = molecular target: DLG4_2 PDZ (Homo sapiens, UniProt P78352); assay: Holdup assay; details: for Kd: composite holdup affinity, 0.00=below quantification threshold, read-out: COMP pKd (converted)
Chain of DLG4_2 PDZ (P78352 160-246 limits assumed): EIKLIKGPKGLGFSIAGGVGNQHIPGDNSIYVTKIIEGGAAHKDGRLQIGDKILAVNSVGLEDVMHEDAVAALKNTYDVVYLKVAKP

[13] = molecular target: T3, PDZD7_3 PDZ (Homo sapiens, UniProt Q9H5P4); assay: Holdup assay; details: for Kd: composite holdup affinity, 0.00=below quantification threshold, read-out: COMP pKd (converted)
T3 sequence (Q9H5P4 862-934 limits assumed): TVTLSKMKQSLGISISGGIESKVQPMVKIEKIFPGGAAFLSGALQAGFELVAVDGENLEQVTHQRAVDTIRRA

[14] = molecular target: DLG1_2 PDZ (Homo sapiens, UniProt Q12959); assay: Holdup assay; details: for Kd: composite holdup affinity, 0.00=below quantification threshold, read-out: COMP pKd (converted)
[15] = molecular target: LNX1_4 PDZ (Homo sapiens, UniProt Q8TBB1); assay: Holdup assay
Chain of LNX1_4 PDZ (Q8TBB1 638-724 limits assumed): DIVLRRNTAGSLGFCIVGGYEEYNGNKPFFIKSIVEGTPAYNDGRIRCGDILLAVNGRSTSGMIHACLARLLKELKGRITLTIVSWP

[16] = molecular target: T4, SNTG2 PDZ (Homo sapiens, UniProt Q9NY99); assay: Holdup assay; details: for Kd: composite holdup affinity, 0.00=below quantification threshold, read-out: COMP pKd (converted)
T4 sequence (Q9NY99 73-156 limits assumed): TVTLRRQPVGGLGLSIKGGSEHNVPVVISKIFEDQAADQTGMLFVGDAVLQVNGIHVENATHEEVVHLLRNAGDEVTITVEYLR

[17] = molecular target: T5, DLG3_2 PDZ (Homo sapiens, UniProt Q92796); assay: Holdup assay; details: for Kd: composite holdup affinity, 0.00=below quantification threshold, read-out: COMP pKd (converted)
T5 sequence (Q92796 226-311 limits assumed): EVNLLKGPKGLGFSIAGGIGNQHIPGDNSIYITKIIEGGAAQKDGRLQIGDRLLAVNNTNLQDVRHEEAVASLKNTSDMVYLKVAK

[18] = molecular target: T6, DLG2_3 PDZ (Homo sapiens, UniProt Q15700); assay: Holdup assay; details: for Kd: composite holdup affinity, 0.00=below quantification threshold, read-out: COMP pKd (converted)
T6 sequence (Q15700 421-501 limits assumed): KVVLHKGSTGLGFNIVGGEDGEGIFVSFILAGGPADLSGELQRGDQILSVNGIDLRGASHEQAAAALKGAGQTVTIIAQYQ

[19] = molecular target: T7, PDZRN4_1 PDZ (Homo sapiens, UniProt Q6ZMN7); assay: Holdup assay; details: for Kd: composite holdup affinity, 0.00=below quantification threshold, read-out: COMP pKd (converted)
T7 sequence (Q6ZMN7 224-314 limits assumed): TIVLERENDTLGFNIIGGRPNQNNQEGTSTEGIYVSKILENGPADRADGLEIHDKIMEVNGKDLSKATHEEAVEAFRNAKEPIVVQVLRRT

[20] = molecular target: LRRC7 PDZ (Homo sapiens, UniProt Q96NW7); assay: Holdup assay
Chain of LRRC7 PDZ (Q96NW7 1450-1535 limits assumed): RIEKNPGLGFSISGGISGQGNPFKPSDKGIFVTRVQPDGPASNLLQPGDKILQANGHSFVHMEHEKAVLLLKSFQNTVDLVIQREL

[21] = molecular target: T8, DLG3_1 PDZ (Homo sapiens, UniProt Q92796); assay: Holdup assay; details: for Kd: composite holdup affinity, 0.00=below quantification threshold, read-out: COMP pKd (converted)
T8 sequence (Q92796 130-217 limits assumed): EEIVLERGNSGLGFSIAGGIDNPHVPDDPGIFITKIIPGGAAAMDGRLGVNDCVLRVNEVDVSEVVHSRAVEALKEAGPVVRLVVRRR

[22] = molecular target: CNKSR3 PDZ (Homo sapiens, UniProt Q6P9H4); assay: Holdup assay
Chain of CNKSR3 PDZ (Q6P9H4 211-293 limits assumed): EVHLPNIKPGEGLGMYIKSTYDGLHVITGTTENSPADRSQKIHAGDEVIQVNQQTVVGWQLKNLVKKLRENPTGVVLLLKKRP
Source text: Supplement 41467_2022_33018_MOESM4_ESM.xlsx, sheet "PPI_convert" | column: CNKSR3

[23] = molecular target: GIPC1 PDZ (Homo sapiens, UniProt O14908); assay: Holdup assay
Chain of GIPC1 PDZ (O14908 133-213 limits assumed): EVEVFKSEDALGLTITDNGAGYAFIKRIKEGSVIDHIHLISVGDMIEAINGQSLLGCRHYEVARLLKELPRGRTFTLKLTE
Source text: Supplement 41467_2022_33018_MOESM4_ESM.xlsx, sheet "PPI_convert" | column: GIPC1

[24] = molecular target: DLG4_3 PDZ (Homo sapiens, UniProt P78352); assay: Holdup assay; details: for Kd: composite holdup affinity, 0.00=below quantification threshold, read-out: COMP pKd (converted)
Chain of DLG4_3 PDZ (P78352 313-393 limits assumed): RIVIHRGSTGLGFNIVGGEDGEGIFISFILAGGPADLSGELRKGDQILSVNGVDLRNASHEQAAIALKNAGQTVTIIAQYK

[25] = molecular target: MAGI2_3 PDZ (Homo sapiens, UniProt Q86UL8); assay: Holdup assay
Chain of MAGI2_3 PDZ (Q86UL8 605-683 limits assumed): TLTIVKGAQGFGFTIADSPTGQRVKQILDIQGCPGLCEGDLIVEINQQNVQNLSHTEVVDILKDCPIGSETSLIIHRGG

[26] = molecular target: TJP2_1 PDZ (Homo sapiens, UniProt Q9UDY2); assay: Holdup assay
Chain of TJP2_1 PDZ (Q9UDY2 33-120 limits assumed): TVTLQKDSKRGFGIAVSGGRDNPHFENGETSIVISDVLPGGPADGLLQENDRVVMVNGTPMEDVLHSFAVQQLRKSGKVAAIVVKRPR

[27] = molecular target: RHPN1 PDZ (Homo sapiens, UniProt Q8TCX5); assay: Holdup assay
Chain of RHPN1 PDZ (Q8TCX5 513-592 limits assumed): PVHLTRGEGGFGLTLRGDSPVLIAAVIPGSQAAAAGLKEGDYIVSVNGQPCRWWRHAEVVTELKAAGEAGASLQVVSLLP

[28] = molecular target: MAST1 PDZ (Homo sapiens, UniProt Q9Y2H9); assay: Holdup assay
Chain of MAST1 PDZ (Q9Y2H9 967-1055 limits assumed): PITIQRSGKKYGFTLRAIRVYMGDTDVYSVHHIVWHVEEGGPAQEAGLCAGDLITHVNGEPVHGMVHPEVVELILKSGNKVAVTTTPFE

[29] = molecular target: LIN7A PDZ (Homo sapiens, UniProt O14910); assay: Holdup assay
Chain of LIN7A PDZ (O14910 108-190 limits assumed): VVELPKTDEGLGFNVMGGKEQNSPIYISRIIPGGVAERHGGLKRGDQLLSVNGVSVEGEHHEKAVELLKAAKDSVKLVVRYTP

[30] = composite holdup affinity, 0.00=below quantification threshold, read-out: COMP pKd (converted)

Molecule: SKPTRRETEV [HPV35-E6]
- Kd [1]: 4070 nM
- Kd [2]: 275 µM
- Kd [3]: 91.2 µM
- Kd ([4]; sheet PPI_convert, read-out: affinity to PDZ DLG2_1 (converted)): 12.3 µM
- Kd [5]: 182 µM
- Kd [6]: 269 µM
- Kd [7]: 19.1 µM
- Kd [8]: 8.13 µM
- Kd [9, 30]: 324 µM
- Kd [10]: 9.55 µM
- Kd [11]: 155 µM
- Kd [12]: 3.09 µM
- Kd [13]: 50.1 µM
- Kd [14]: 2290 nM
- Kd ([15]; sheet PPI_convert, read-out: affinity to PDZ LNX1_4 (converted)): 324 µM
- Kd [16]: 112 µM
- Kd [17]: 3.24 µM
- Kd [18]: 4.9 µM
- Kd [19]: 41.7 µM
- Kd [20, 30]: 257 µM
- Kd [21]: 35.5 µM
- Kd ([22]; sheet PPI_convert, read-out: affinity to PDZ CNKSR3 (converted)): 269 µM
- Kd ([23]; sheet PPI_convert, read-out: affinity to PDZ GIPC1 (converted)): 20.4 µM
- Kd [24]: 6.31 µM

Molecule: CC(C)C[C@H](NC(=O)[C@@H](N)CCCNC(=N)N)C(=O)N[C@@H](CCC(N)=O)C(=O)N[C@@H](CCCNC(=N)N)C(=O)N[C@@H](CCCNC(=N)N)C(=O)N[C@@H](CCCNC(=N)N)C(=O)N[C@@H](CCC(=O)O)C(=O)N[C@H](C(=O)N[C@@H](CCC(N)=O)C(=O)N[C@H](C(=O)O)C(C)C)[C@@H](C)O [HPV18-E6]
- pKd [25]: 4.15
- pKd [26]: 3.89
- pKd [1]: 5.56
- pKd [3]: 4.05
- pKd [4]: 5.11
- pKd [5]: 3.71
- Kd [8]: 16.6 µM
- pKd [9]: 4.10
- pKd [10]: 5.26
- pKd [27]: 3.63
- pKd [12]: 5.46
- pKd [13]: 3.98
- pKd [14]: 5.78
- pKd [15]: 4.03
- pKd [16]: 4.03
- pKd [17]: 5.46
- pKd [18]: 5.06
- pKd [19]: 4.48
- pKd [20]: 3.14
- pKd [28]: 5.33
- pKd [21]: 4.34
- pKd [22]: 4.10
- pKd [29]: 3.40
- pKd [23]: 4.44
- pKd [24]: 5.74

Molecule: SRRPRTETQV [HPV31-E6]
- Kd [25, 30]: 79.4 µM
- Kd [26, 30]: 219 µM
- Kd [1]: 1350 nM
- Kd [3]: 47.9 µM
- Kd [5]: 123 µM
- Kd [8]: 5.89 µM
- Kd [10]: 6.92 µM
- Kd [27, 30]: 182 µM
- Kd [12]: 4.37 µM
- Kd [13]: 195 µM
- Kd [14]: 1620 nM
- Kd [16]: 83.2 µM
- Kd [17]: 3.89 µM
- Kd [18]: 7.94 µM
- Kd [19]: 64.6 µM
- Kd [28, 30]: 38 µM
- Kd [21]: 36.3 µM
- Kd [29, 30]: 309 µM
- Kd [24]: 7.94 µM
